Counter-ions that a name gives are not always drawn.
Tests used:
MNK1 = target: T1, MNK1 (Homo sapiens, UniProt Q9BUB5); assay: MNK inhibition assay (Z-Lyte kinase assay, Ser/Thr 7 peptide); assay type: biochemical; settings: for IC50: recombinant GST-MNK1, 3 hours at 31° C.; for inhibition at 1 µM / inhibition at 10 µM: read-out: Inhibition of MNK1 activity at indicated concentration
T1 construct: purchased Life Technologies or Carna Biosciences PV6023 or 02-145; host or cells: baculovirus infected insect cells
From the text: For the measurement of the activity of the MNK1 kinase the Z-Lyte kinase assay system was used. The kinase activity of MNK1 can be quantified with the Z-Lyte kinase assay kit Ser/Thr 7 peptide (Life Technologies PV3180). The kit was utilized according to the instructions of the provider. A recombinant GST-MNK1 fusion protein produced in and purified from baculovirus infected insect cells was used as enzyme source (GST-MNK1 Life Technologies PV6023 or Carna Biosciences 02-145). It was verified that both sources of the MNK1 enzyme gave similar IC50 values with several compounds. The MNK1 enzyme assay was performed in 384 well round bottom black microtiter plates (Corning 3676). The kinase reaction was performed for 3 hours at 31° C. As instructed by the provider of the kit the amount of enzyme was chosen such that ˜30% of the substrate peptide was phosphorylated in control wells containing buffer only. The MNK1 inhibiting activity of compounds was tested by adding the compounds to the kinase reaction at a concentration of 10000, 5000, 2000, 1000, 500, 200, 100, 50 nM. Compounds with strong MNK1 inhibition were tested at 20, 10, 5, 2, 1 and 0.5 nM in addition. Each compound concentration was tested at least in duplicate. The % phosphorylation of the substrate peptide at each compound concentration was calculated as described in the assay manual. The fluorescent signals were recordes on Biotek Cytation 3 microplate reader. The IC50, the concentration that reduced substrate phosphorylation by 50% if compared to buffer only wells, was calculated with the Grafit 6 software (Erythacus software).

[1] = tested on: human pancreatic cancer cell line MiaPaCa2 (ATCC CRL-1420); assay: Cell growth assay (CellTiterGlo, 72 hours); assay type: cell-based; settings: for IC50: MIA PaCa-2, MiaPaCa2 cells, 72 hours, read-out: IC50 MiaPaCa; for inhibition at 100 µM: MIA PaCa-2, at 100 μM
Experimental: The inhibition of cell growth by the compounds was tested by exposing the human pancreatic cancer cell line MiaPaCa2 (ATCC CRL-1420) to the compounds. The assay was performed in 384 well clear bottom white microtiter plates (Greiner #781098). Each well was seeded with 10^3 cells in 20 μl of Dulbecco's modified Eagle's medium (Sigma D6796) supplied with 10% fetal calf scrum (Sigma F7524), 2.5% horse serum (Sigma H0146), 1% Penicillin-Streptomycin (Sigma P0781), 1% MEM nonessential amino acid solution 100× (Sigma M71459) and 1% 200 mM L-Glutamine (Sigma G7513) culture medium. After overnight incubation at 37° C. in 5% CO2 the compounds were added in the following concentrations: 100, 50, 20, 10, 5, 2, 1, 0.5, 0.2 and 0.1 μM. Each compound concentration was tested in quadruplicate. The incubation was then continued for 72 hours. After 72 hours the growth of the cells was assessed by the addition of the CellTiterGlo reagent (Promega G9242) as instructed by the provider. The luminescent signal was recorded on a SpectraMax M2 microplate reader. The signal obtained in wells containing cells cultivated in the absence of compound was set to 100% growth after subtracting the signal obtained in medium only wells. The % growth in each well was calculated by subtracting the medium only value and dividing through the 100% growth value. The IC50 for cell growth, the concentration of compound at which cell growth was reduced to 50%, was calculated with the GraFit6 software (Erythacus software).

[2] = read-out: Inhibition of MiaPaCa growth at indicated concentration

T1 sequence (Q9BUB5 whole entry): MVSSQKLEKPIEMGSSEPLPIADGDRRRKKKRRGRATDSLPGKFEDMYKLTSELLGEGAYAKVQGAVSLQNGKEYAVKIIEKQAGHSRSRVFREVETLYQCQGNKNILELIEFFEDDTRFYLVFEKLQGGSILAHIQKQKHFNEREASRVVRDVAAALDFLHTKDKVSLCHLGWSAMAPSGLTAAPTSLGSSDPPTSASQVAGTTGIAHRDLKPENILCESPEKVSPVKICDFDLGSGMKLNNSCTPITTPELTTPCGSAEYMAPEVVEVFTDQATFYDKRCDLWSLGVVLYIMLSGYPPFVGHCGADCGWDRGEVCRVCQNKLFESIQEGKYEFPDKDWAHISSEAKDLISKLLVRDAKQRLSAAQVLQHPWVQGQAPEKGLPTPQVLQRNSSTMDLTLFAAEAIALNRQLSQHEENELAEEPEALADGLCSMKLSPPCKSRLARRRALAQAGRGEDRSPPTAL

Row | SMILES | IC50 (MNK1) [nM] | IC50 [1] [µM] | further results
1 | Fc1cc(NCc2ccc3cncc(-c4cc5ccccc5o4)c3c2)ccn1 [Example 63] | 68 |  | 
2 | Nc1ncc2ccc(CNc3ccncc3)cc2c1-c1cc2ccccc2o1 [Example 165, 4-(Benzofuran-2-yl)-6-[(4-pyridylamino)methyl]isoquinolin-3-amine] | 6 | 5.7 | 
3 | N[C@H]1CC[C@H](Oc2ccc3cncc(-c4ccccc4)c3c2)CC1 [Example 309] | 61 | 4.43 | 
4 | CN(C)CCCNCc1ccc2cncc(-c3ccc(O)cc3)c2c1 [Example 43, 4-[6-[[3-(Dimethylamino)propylamino]methyl]-4-isoquinolyl]phenol] | 219 | 32.2 | 
5 | NC1CCN(Cc2ccc3nncc(-c4ccc(Cl)cc4)c3c2)CC1 [Example 145, 1-[[4-(4-Chlorophenyl)cinnolin-6-yl]methyl]piperidin-4-amine] | 2720 | 29 | 
6 | Nc1cc[n+](Cc2ccc3cnc(N)c(-c4cc5ccccc5o4)c3c2)cc1 [Example 166, 6-[(4-Aminopyridin-1-ium-1-yl)methyl]-4-(benzofuran-2-yl)isoquinolin-3-amine trifluoroacetate] | 57 |  | 
7 | O=c1cc(NCc2ccc3cncc(-c4cc5ccccc5o4)c3c2)cc[nH]1 [Example 74] | 5.3 | 19.2 | 
8 | COc1ccc(-c2cncc3ccc(CN4CCC(N)CC4)cc23)cn1 [Example 201] | 803 | 25.2 | 
9 | Nc1ncc(-c2cccs2)c2cc(CN3CCC(N)CC3)ccc12 [Example 290] | 183 | 5.21 | 
10 | Nc1ncc(-c2ccccc2)c2cc(N[C@H]3CC[C@H](N)CC3)cc(Cl)c12 [Example 312, Trans-N6-(4-aminocyclohexyl)-8-chloro-4-phenyl-isoquinoline-1,6-diamine] | 171 | 1.3 | 
11 | NCCCOCc1ccc2cncc(-c3ccc(NC(=O)Nc4ccccc4)cc3)c2c1 [Example 108, 1-[4-[6-(3-Aminopropoxymethyl)-4-isoquinolyl]phenyl]-3-phenyl-urea] | 3510 | 15 | 
12 | COc1cnccc1NCc1ccc2cncc(-c3cc4ccccc4o3)c2c1 [Example 72] | 12 | 5.08 | 
13 | N[C@H]1CC[C@H](Nc2ccc3c(=O)[nH]cc(-c4ccccc4)c3c2)CC1 [Example 88] | 171 |  | 
14 | NC1CCCN(Cc2ccc3cncc(-c4cc5ccccc5o4)c3c2)C1 (centres unmarked) [Example 293] | 2080 | 14.5 | 
15 | COc1c(CN2CCC(N)CC2)cc2c(-c3cc4ccccc4o3)cncc2c1OC [Example 279, 1-[[4-(Benzofuran-2-yl)-7,8-dimethoxy-6-isoquinolyl]methyl]piperidin-4-amine] | 116 | 5.63 | 
16 | c1ccc2oc(-c3cncc4ccc(CNc5ccnc6[nH]ccc56)cc34)cc2c1 [Example 272, N-[[4-(Benzofuran-2-yl)-6-isoquinolyl]methyl]-1H-pyrrolo[2,3-b]pyridin-4-amine] | 5.4 | 7.25 | 
17 | Nc1cc(NCc2ccc3cncc(-c4cc5ccccc5o4)c3c2)ccn1 [Example 130, N4-[[4-(Benzofuran-2-yl)-6-isoquinolyl]methyl]pyridine-2,4-diamine] | 21 | 0.58 | 
18 | Nc1cc[n+](Cc2ccc3cncc(-c4ccccc4)c3c2)cc1 [Example 121, 1-[(4-Phenyl-6-isoquinolyl)methyl]pyridin-1-ium-4-amine] | 165 | 21.8 | 
19 | NC1CCN(Cc2ccc3cncc(-c4ccccn4)c3c2)CC1 [Example 15] | 3960 |  | 
20 | NC1CCN(Cc2ccc3cncc(-c4ccc(C(=O)O)cc4)c3c2)CC1 [Example 29, 4-[6-[(4-Amino-1-piperidyl)methyl]-4-isoquinolyl]benzoic acid] |  |  | inhibition at 1 µM (MNK1): 43%
21 | NC1CCN(Cc2ccc3cncc(-c4cccc(C(=O)O)c4)c3c2)CC1 [Example 30] |  |  | inhibition at 1 µM (MNK1): 34%
22 | NC(=O)Nc1ccc(-c2cncc3ccc(CN4CCC(N)CC4)cc23)cc1 [Example 33, [4-[6-[(4-Amino-1-piperidyl)methyl]-4-isoquinolyl]phenyl]urea] | 866 |  | 
23 | O=c1[nH]cc(-c2ccccc2)c2cc(NCc3ccncc3)ccc12 [Example 90] | 1060 |  | 
24 | O=c1[nH]cc(-c2cc3ccccc3o2)c2cc(NCc3ccncc3)ccc12 [Example 89, 4-(Benzofuran-2-yl)-6-(4-pyridylmethylamino)-2H-isoquinolin-1-one] |  |  | inhibition at 10 µM (MNK1): 35%
25 | c1ccc2oc(-c3cncc4ccc(NC5CCNCC5)cc34)cc2c1 [Example 82] |  | 2.17 | 
26 | N#Cc1ccccc1-c1cncc2ccc(CN3CCC(N)CC3)cc12 [Example 8] |  |  | inhibition at 10 µM (MNK1): 95%
27 | c1ccc2oc(-c3cncc4ccc(CNc5ccnnc5)cc34)cc2c1 [Example 131, N-[[4-(benzofuran-2-yl)-6-isoquinolyl]methyl]pyridazin-4-amine] | 24 |  | 
28 | Oc1ccc(-c2cncc3ccc(CNC4CCCNC4)cc23)cc1 (centres unmarked) [Example 39] | 496 |  | 
29 | COc1cc(NCc2ccc3cncc(-c4cc5ccccc5o4)c3c2)ccn1 [Example 65] | 157 |  | 

More lines, main results first:

Row | IC50 (MNK1) [nM] | IC50 [1] [µM] | SMILES | further results
30 | 1240 | 24 | CC(=O)c1cccc(-c2cncc3ccc(CN4CCC(N)CC4)cc23)c1 [Example 186] | 
31 | 153 | 2.17 | Nc1ncc(-c2ccccc2)c2cc(O[C@H]3CC[C@H](N)CC3)ccc12 [Example 322] | 
32 | 331 | 20.4 | NC1CCN(Cc2ccc3cncc(-c4ccc5cccnc5c4)c3c2)CC1 [Example 196] | 
33 | 290 | 1.21 | COc1cc(CN2CCC(N)CC2)cc2c(-c3ccco3)cnc(N)c12 [Example 297] | 
34 | 603 |  | NC1CCN(Cc2ccc3cncc(-c4ccc(NC(=O)Nc5cccnc5)cc4)c3c2)CC1 [Example 117] | inhibition at 100 µM [1, 2]: 34%
35 | 1890 | 4.61 | NC1CCN(Cc2ccc3nncc(-c4cc5ccccc5o4)c3c2)CC1 [Example 144, 1-[[4-(Benzofuran-2-yl)cinnolin-6-yl]methyl]piperidin-4-amine] | 
36 | 4700 |  | NC1CCN(Cc2ccc3cncc(-c4cn[nH]c4)c3c2)CC1 [Example 204] | inhibition at 50 µM ([1]; MIA PaCa-2, at 50 μM, read-out: Inhibition of MiaPaCa growth at indicated concentration): 55%
37 | 59 | 14.4 | COc1cc2cncc(-c3ccccc3)c2cc1CN1CCC(N)CC1 [Example 266, 1-[(7-Methoxy-4-phenyl-6-isoquinolyl)methyl]piperidin-4-amine] | 
38 | 4680 |  | c1cncc(Nc2ccc3cncc(-c4cc5ccccc5o4)c3c2)c1 [Example 134] | inhibition at 100 µM [1, 2]: 45%
39 | 1040 | 0.8 | Cc1ccc(-c2cncc3ccc(CN4CCC(N)CC4)cc23)o1 [Example 167, 1-[[4-(5-methyl-2-furyl)-6-isoquinolyl]methyl]piperidin-4-amine] | 
40 | 132 | 7.92 | Nc1cc[n+](Cc2ccc3cncc(-c4ccc(Cl)cc4)c3c2)cc1 [Example 123] | 
41 | 1090 |  | NC(=O)Nc1cccc(-c2cncc3ccc(CN4CCC(N)CC4)cc23)c1 [Example 34] | 
42 | 2140 |  | Clc1cc(NCc2ccc3cncc(-c4cc5ccccc5o4)c3c2)ccn1 [Example 62] | 
43 | 94 |  | Nc1ncc(-c2cc3ccccc3o2)c2cc(O[C@H]3CC[C@H](N)CC3)cc(Cl)c12 [Example 320] | 
44 | 135 |  | c1cncc(NCc2ccc3cncc(-c4cc5ccccc5o4)c3c2)c1 [Example 60, N-[[4-(Benzofuran-2-yl)-6-isoquinolyl]methyl]pyridin-3-amine] | 
45 |  | 2.21 | N[C@H]1CC[C@@H](Nc2ccc3cncc(-c4cc5ccccc5o4)c3c2)CC1 [Example 81, N4-[4-(Benzofuran-2-yl)-6-isoquinolyl]cyclohexane-1,4-diamine] | 
